According to the supplement of paper PMC10307832:

Legend:
Experiment in all cases: relative viability (nuclei count vs DMSO), 5 days (fraction); higher = more cells survive
[1] = compound: O=C(O)C(Cc1ccccc1[N+](=O)[O-])=NNc1nc(-c2ccc(Cl)c(Cl)c2)cs1 (mixture of isomers) [4EGI-1] + Nc1ncn([C@H]2C[C@H](O)[C@@H](CO)O2)c(=O)n1 [Decitabine] (partner 2 µM)
In short: (§1)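 Relative viability is defined as nuclei in treated wells over nuclei in vehicle wells. Duplicate plates were run and medians reported. Lung cancer cell lines in 1536-well plates were dosed by pin tool one day after seeding, with one drug or with a fixed anchor-drug dose plus five library-drug doses (not always all listed) in √10 steps, and nuclei were counted after 5 days.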

[2] = compound: CN1CCN(CC1)C2=CC(=C(C=C2)NC3=NC=C4C(=N3)N(C5=CC=CC=C5C(=O)N4C)C)OC [XMD8-85] + Nc1ncn([C@H]2C[C@H](O)[C@@H](CO)O2)c(=O)n1 [Decitabine] (partner 2 µM)
In short: as §1

[3] = compound: O=C(O)C(Cc1ccccc1[N+](=O)[O-])=NNc1nc(-c2ccc(Cl)c(Cl)c2)cs1 (mixture of isomers) [4EGI-1] + CC(=O)c1c(C)c2cnc(Nc3ccc(N4CCNCC4)cn3)nc2n(C2CCCC2)c1=O [Palbociclib] (partner 0.5 µM)
In short: as §1

[4] = compound: CN1CCN(CC1)C2=CC(=C(C=C2)NC3=NC=C4C(=N3)N(C5=CC=CC=C5C(=O)N4C)C)OC [XMD8-85] + N=C(N)NC(=N)NCCc1ccccc1 [Phenformin] (partner 250 µM)
In short: as §1

## NCI-H1792
[1]; first compound 0.5 µM
  relative viability: 0.568
[1]; first compound 1.581 µM
  relative viability: 0.715
[1]; first compound 5 µM
  relative viability: 0.6
[1]; first compound 15.81 µM
  relative viability: 0.488
[1]; first compound 50 µM
  relative viability: 0.369
[2]; first compound 0.253 µM
  relative viability: 0.468
[2]; first compound 0.8 µM
  relative viability: 0.525
[2]; first compound 2.53 µM
  relative viability: 0.504
[2]; first compound 8 µM
  relative viability: 0.361
[3]; first compound 0.5 µM
  relative viability: 0.75
[3]; first compound 1.581 µM
  relative viability: 0.695
[3]; first compound 5 µM
  relative viability: 0.723
[3]; first compound 15.81 µM
  relative viability: 0.575
[3]; first compound 50 µM
  relative viability: 0.646
[4]; first compound 0.253 µM
  relative viability: 0.268
[4]; first compound 2.53 µM
  relative viability: 0.257
[4]; first compound 8 µM
  relative viability: 0.486
